# Marks after values point to notes of the source that are not given here.
# Columns and labels:
# [1] = Study 202 treatment-emergent laboratory abnormalities (DAIDS grade); format: in vivo, human
# Text: The 12th subject (Subject 42001) had 2 consecutive CPK elevations (Grade 3 followed by Grade 4) that returned to normal values while continuing treatment at a subsequent visit. None of the CPK elevations were associated with clinical symptoms; no subjects discontinued due to CPK elevations and there were no differences in AEs related to musculoskeletal disorders between the CVC and EFV arms.
# The number of subjects with graded treatment-emergent laboratory abnormalities in selected liver parameters of interest is shown in Table 34. No Grade 4 ALT or AST elevations were observed. Except for one Grade 3 AST elevation, all ALT and AST elevations were Grade 1 or Grade 2. […] All abnormalities in bilirubin were Grade 1 or Grade 2. […]
# [2] = Study 202 ECG abnormalities; format: in vivo, human; settings: through Week 48
# [3] = CVC 100 mg (N = 58), through Week 48
# [4] = CVC 200 mg (N = 57), through Week 48
# [5] = All CVC (N = 115), EFV (N = 28)
structure (smiles),measurement,setting,value
"CCCCOCCOc1ccc(-c2ccc3c(c2)/C=C(/C(=O)Nc2ccc([S@@+]([O-])Cc4cncn4CCC)cc2)CCCN3CC(C)C)cc1 [CVC, (S)-8-[4-(2-Butoxyethoxy)phenyl]-1-isobutyl-N-(4-{[(1-propyl-1H-imidazol-5-yl)methyl]sulfinyl}phenyl)-1,2,3,4-tetrahydro-1-benzazocine-5-carboxamide]","Alanine aminotransferase (ALT) abnormality, any worst grade",[1]; CVC 100 mg (N = 58),7 (12%) n (%)
same,"Aspartate aminotransferase (AST) abnormality, any worst grade",[1]; CVC 100 mg (N = 58),11 (19%) n (%)
same,"Bilirubin abnormality, any worst grade",[1]; CVC 100 mg (N = 58),4 (7%) n (%)
same,"Bilirubin abnormality, worst Grade 1",[1]; CVC 100 mg (N = 58),1 (2%) n (%)
same,"Bilirubin abnormality, worst Grade 2",[1]; CVC 100 mg (N = 58),3 (5%) n (%)
same,"Bilirubin abnormality, worst Grade 3",[1]; CVC 100 mg (N = 58),0 n (%)
same,"Bilirubin abnormality, worst Grade 4",[1]; CVC 100 mg (N = 58),0 n (%)
same,"AST increased, Grade 3",[1]; [3],1 (2%) n (%)
same,Any Grade 3 laboratory abnormality,[1]; [3],4 (7%) n (%)
same,"CPK increased, Grade 3",[1]; [3],2 (3%) n (%)
same,"Any graded (Grade 1-4) laboratory abnormality, %",[1]; CVC 200 mg,96%
same,"Worst Grade 1 laboratory abnormality, %",[1]; CVC 200 mg,28%
same,"Worst Grade 2 laboratory abnormality, %",[1]; CVC 200 mg,47%
same,"Worst Grade 3 laboratory abnormality, %",[1]; CVC 200 mg,16%
same,"Worst Grade 4 laboratory abnormality, %",[1]; CVC 200 mg,5%
same,"ALT abnormality, worst Grade 1",[1]; CVC 200 mg (N = 57),6 (11%) n (%)
same,"ALT abnormality, worst Grade 2",[1]; CVC 200 mg (N = 57),2 (4%) n (%)
same,"ALT abnormality, worst Grade 3",[1]; CVC 200 mg (N = 57),0 n (%)
same,"ALT abnormality, worst Grade 4",[1]; CVC 200 mg (N = 57),0 n (%)
same,"AST abnormality, worst Grade 1",[1]; CVC 200 mg (N = 57),6 (11%) n (%)
same,"AST abnormality, worst Grade 2",[1]; CVC 200 mg (N = 57),4 (7%) n (%)
same,"AST abnormality, worst Grade 3",[1]; CVC 200 mg (N = 57),0 n (%)
same,"AST abnormality, worst Grade 4",[1]; CVC 200 mg (N = 57),0 n (%)
same,"Alanine aminotransferase (ALT) abnormality, any worst grade",[1]; CVC 200 mg (N = 57),8 (14%) n (%)
same,"Aspartate aminotransferase (AST) abnormality, any worst grade",[1]; CVC 200 mg (N = 57),10 (18%) n (%)
same,"Bilirubin abnormality, any worst grade",[1]; CVC 200 mg (N = 57),3 (5%) n (%)
same,"Bilirubin abnormality, worst Grade 1",[1]; CVC 200 mg (N = 57),2 (4%) n (%)
same,"Bilirubin abnormality, worst Grade 2",[1]; CVC 200 mg (N = 57),1 (2%) n (%)
same,"Bilirubin abnormality, worst Grade 3",[1]; CVC 200 mg (N = 57),0 n (%)
same,"Bilirubin abnormality, worst Grade 4",[1]; CVC 200 mg (N = 57),0 n (%)
same,"AST increased, Grade 3",[1]; [4],0 n (%)
same,"AST increased, Grade 4",[1]; [4],0 n (%)
same,Any Grade 3 laboratory abnormality,[1]; [4],9 (16%) n (%)
same,Any Grade 3 or Grade 4 laboratory abnormality,[1]; [4],12 (21%) n (%)
same,Any Grade 4 laboratory abnormality,[1]; [4],3 (5%) n (%)
same,Aspartate aminotransferase (AST) increased (Grade 3 or 4),[1]; [4],0 n (%)
same,"CPK increased, Grade 3",[1]; [4],6 (11%) n (%)
same,"CPK increased, Grade 4",[1]; [4],3 (5%) n (%)
same,Creatine phosphokinase (CPK) increased (Grade 3 or 4),[1]; [4],9 (16%) n (%)
same,Fibrinogen decreased (Grade 3 or 4),[1]; [4],2 (4%) n (%)
same,"Fibrinogen decreased, Grade 3",[1]; [4],2 (4%) n (%)
same,"Fibrinogen decreased, Grade 4",[1]; [4],0 n (%)
same,Hemoglobin decreased (Grade 3 or 4),[1]; [4],0 n (%)
same,"Hemoglobin decreased, Grade 3",[1]; [4],0 n (%)
same,"Hemoglobin decreased, Grade 4",[1]; [4],0 n (%)
same,Neutrophils decreased (Grade 3 or 4),[1]; [4],0 n (%)
same,"Neutrophils decreased, Grade 3",[1]; [4],0 n (%)
same,"Neutrophils decreased, Grade 4",[1]; [4],0 n (%)
same,Phosphate decreased (Grade 3 or 4),[1]; [4],2 (4%) n (%)
same,"Phosphate decreased, Grade 3",[1]; [4],2 (4%) n (%)
same,"Phosphate decreased, Grade 4",[1]; [4],0 n (%)
same,HR Abnormally high (120 bpm ≤ abnormally high),[2]; [5],0 n (%)
same,HR Abnormally low (≤ 50 bpm),[2]; [5],0 n (%)
same,PR Abnormally high (210 ms ≤ abnormally high),[2]; [5],3 (3%) n (%)
same,QRS Abnormally high (120 ms ≤ abnormally high),[2]; [5],1 (1%)^d n (%)
same,QRS Abnormally low (≤ 50 ms),[2]; [5],0 n (%)
same,QTcB interval Borderline (450 ms ≤ borderline ≤ 480 ms),[2]; [5],6 (6%) n (%)
same,QTcB interval Increase by >30-60 ms,[2]; [5],9 (9%) n (%)
same,QTcB interval Increase by >60 ms,[2]; [5],1 (1%) n (%)
same,QTcB interval Pathologically prolonged (> 500 ms),[2]; [5],0 n (%)
same,QTcB interval Prolonged (480 ms < prolonged ≤ 500 ms),[2]; [5],0 n (%)
same,QTcF interval Borderline (450 ms ≤ borderline ≤ 480 ms),[2]; [5],2 (2%) n (%)
same,QTcF interval Increase by >30-60 ms,[2]; [5],7 (7%) n (%)
same,QTcF interval Increase by >60 ms,[2]; [5],1 (1%) n (%)
same,QTcF interval Pathologically prolonged (> 500 ms),[2]; [5],0 n (%)
same,QTcF interval Prolonged (480 ms < prolonged ≤ 500 ms),[2]; [5],0 n (%)
same,HR Abnormally high (120 bpm ≤ abnormally high),[2]; CVC 100 mg (N = 58),0 n (%)
same,HR Abnormally low (≤ 50 bpm),[2]; CVC 100 mg (N = 58),0 n (%)
same,PR Abnormally high (210 ms ≤ abnormally high),[2]; CVC 100 mg (N = 58),2 (3%) n (%)
same,QRS Abnormally high (120 ms ≤ abnormally high),[2]; CVC 100 mg (N = 58),1 (2%)^d n (%)
same,QRS Abnormally low (≤ 50 ms),[2]; CVC 100 mg (N = 58),0 n (%)
same,QTcB interval Borderline (450 ms ≤ borderline ≤ 480 ms),[2]; CVC 100 mg (N = 58),4 (8%) n (%)
same,QTcB interval Increase by >30-60 ms,[2]; CVC 100 mg (N = 58),6 (12%) n (%)
same,QTcB interval Increase by >60 ms,[2]; CVC 100 mg (N = 58),1 (2%) n (%)
same,QTcB interval Pathologically prolonged (> 500 ms),[2]; CVC 100 mg (N = 58),0 n (%)
same,QTcB interval Prolonged (480 ms < prolonged ≤ 500 ms),[2]; CVC 100 mg (N = 58),0 n (%)
same,QTcF interval Borderline (450 ms ≤ borderline ≤ 480 ms),[2]; CVC 100 mg (N = 58),1 (2%) n (%)
same,QTcF interval Increase by >30-60 ms,[2]; CVC 100 mg (N = 58),4 (8%) n (%)
same,QTcF interval Increase by >60 ms,[2]; CVC 100 mg (N = 58),1 (2%) n (%)
same,QTcF interval Pathologically prolonged (> 500 ms),[2]; CVC 100 mg (N = 58),0 n (%)
same,QTcF interval Prolonged (480 ms < prolonged ≤ 500 ms),[2]; CVC 100 mg (N = 58),0 n (%)
same,HR Abnormally high (120 bpm ≤ abnormally high),[2]; CVC 200 mg (N = 57),0 n (%)
same,HR Abnormally low (≤ 50 bpm),[2]; CVC 200 mg (N = 57),0 n (%)
same,PR Abnormally high (210 ms ≤ abnormally high),[2]; CVC 200 mg (N = 57),1 (2%) n (%)
same,QRS Abnormally high (120 ms ≤ abnormally high),[2]; CVC 200 mg (N = 57),0 n (%)
same,QRS Abnormally low (≤ 50 ms),[2]; CVC 200 mg (N = 57),0 n (%)
same,QTcB interval Borderline (450 ms ≤ borderline ≤ 480 ms),[2]; CVC 200 mg (N = 57),2 (4%) n (%)
same,QTcB interval Increase by >30-60 ms,[2]; CVC 200 mg (N = 57),3 (6%) n (%)
same,QTcB interval Increase by >60 ms,[2]; CVC 200 mg (N = 57),0 n (%)
same,QTcB interval Pathologically prolonged (> 500 ms),[2]; CVC 200 mg (N = 57),0 n (%)
same,QTcB interval Prolonged (480 ms < prolonged ≤ 500 ms),[2]; CVC 200 mg (N = 57),0 n (%)
same,QTcF interval Borderline (450 ms ≤ borderline ≤ 480 ms),[2]; CVC 200 mg (N = 57),1 (2%) n (%)
same,QTcF interval Increase by >30-60 ms,[2]; CVC 200 mg (N = 57),3 (6%) n (%)
same,QTcF interval Increase by >60 ms,[2]; CVC 200 mg (N = 57),0 n (%)
same,QTcF interval Pathologically prolonged (> 500 ms),[2]; CVC 200 mg (N = 57),0 n (%)
same,QTcF interval Prolonged (480 ms < prolonged ≤ 500 ms),[2]; CVC 200 mg (N = 57),0 n (%)

# Reference: patent US20200368247A1, “CENICRIVIROC FOR THE TREATMENT OF FIBROSIS” (Tobira Therapeutics, Inc., priority 2014, published 2020)
